This note sets out measurements from patent US10336761B2, “TGFβ receptor antagonist” (BRISTOL-MYERS SQUIBB COMPANY, priority 2015, dated 2019).

The structures appear in SMILES notation. Where only a bound is given, the exact number is not on record here.

For the test, the target named is HIS-TGFβR1 T204D (Homo sapiens (Human), UniProt P36897, T204D). Put plainly: HTRF probe-displacement assay, HIS-TGFβR1 T204D. The conditions noted are these: 1 hour at room temperature. Format: binding. (In general: Time-resolved FRET reads energy transfer from a long-lived donor to a nearby acceptor.)
HIS-TGFβR1 T204D, sequence (P36897 34-503 T204D): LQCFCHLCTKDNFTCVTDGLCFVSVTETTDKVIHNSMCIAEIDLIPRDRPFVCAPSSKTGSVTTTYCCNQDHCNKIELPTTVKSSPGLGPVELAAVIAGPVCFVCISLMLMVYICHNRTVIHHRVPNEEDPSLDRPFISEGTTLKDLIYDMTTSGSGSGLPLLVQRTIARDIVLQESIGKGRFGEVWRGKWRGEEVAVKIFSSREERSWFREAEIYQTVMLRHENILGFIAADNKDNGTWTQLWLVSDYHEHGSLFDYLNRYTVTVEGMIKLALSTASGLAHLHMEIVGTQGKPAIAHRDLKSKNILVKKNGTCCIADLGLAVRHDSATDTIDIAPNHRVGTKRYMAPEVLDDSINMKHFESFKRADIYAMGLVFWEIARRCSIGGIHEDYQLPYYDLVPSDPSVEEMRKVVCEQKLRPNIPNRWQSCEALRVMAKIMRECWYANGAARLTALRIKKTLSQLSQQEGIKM
What is called IC50 is the concentration that inhibits the measured activity by half. Read a high IC50 as weaker potency. The molecule `OC1CCN(Cc2ccn3nc(-c4ccccn4)nc(Nc4ccncc4F)c23)CC1` [Example 243, 1-({4-[(3-fluoropyridin-4-yl)amino]-2-(pyridin-2-yl)pyrrolo[2,1-f][1,2,4]triazin-5-yl}methyl)piperidin-4-ol] displayed an IC50 of 0.58 nM. The figure for `OCC1(NCc2ccn3nc(-c4ccccn4)nc(Nc4ccncc4F)c23)CCCC1` [Example 244, {1-[({4-[(3-fluoropyridin-4-yl)amino]-2-(pyridin-2-yl)pyrrolo[2,1-f][1,2,4]triazin-5-yl}methyl)amino]cyclopentyl}methanol] is 6.3 nM; for `CN(C)C1CCC(NCc2ccn3nc(-c4ccccn4)nc(Nc4ccncc4F)c23)CC1` (stereo not drawn) [Example 245, 4-N-({4-[(3-fluoropyridin-4-yl)amino]-2-(pyridin-2-yl)pyrrolo[2,1-f][1,2,4]triazin-5-yl}methyl)-1-N, 1-N-dimethylcyclohexane-1,4-diamine] it is 1 nM; for `Fc1cnccc1Nc1nc(-c2ccccn2)nn2ccc(CNCCCN3CCOCC3)c12` [Example 246, 3-fluoro-N-[5-({[3-(morpholin-4-yl)propyl]amino}methyl)-2-(pyridin-2-yl)pyrrolo[2,1-f][1,2,4]triazin-4-yl]pyridin-4-amine] it is 3.9 nM.

In turn, `Fc1cnccc1Nc1nc(-c2ccccn2)nn2ccc(CNCC3CCCO3)c12` (stereo not drawn) [Example 247, 3-fluoro-N-(5-{[(oxolan-2-ylmethyl)amino]methyl}-2-(pyridin-2-yl)pyrrolo[2,1-f][1,2,4]triazin-4-yl)pyridin-4-amine] returned an IC50 of 1 nM. The figure for `Fc1cnccc1Nc1nc(-c2ccc(C(F)(F)F)cn2)nn2cccc12` [Example 248, 3-fluoro-N-{2-[5-(trifluoromethyl)pyridin-2-yl]pyrrolo[2,1-f][1,2,4]triazin-4-yl}pyridin-4-amine] is 70 nM; for `COc1nc(-c2nc(Nc3ccncc3F)c3cccn3n2)cs1` [Example 249, 3-fluoro-N-[2-(2-methoxy-1,3-thiazol-4-yl)pyrrolo[2,1-f][1,2,4]triazin-4-yl]pyridin-4-amine] it is 5.8 nM; for `CC(=O)Nc1cc(Nc2nc(-c3ccccn3)nn3ccc(CN4CCN(CCO)CC4)c23)ccn1` [Example 250, N-{4-[(5-{[4-(2-hydroxyethyl)piperazin-1-yl]methyl}-2-(pyridin-2-yl)pyrrolo[2,1-f][1,2,4]triazin-4-yl)amino]pyridin-2-yl}acetamide] it is 1.2 nM. The figure for `O[C@H]1CCN(Cc2ccn3nc(-c4cccc(C(F)F)n4)nc(Nc4ccncc4F)c23)C1` [Example 251, (3S)-1-({2-[6-(difluoromethyl)pyridin-2-yl]-4-[(3-fluoropyridin-4-yl)amino]pyrrolo[2,1-f][1,2,4]triazin-5-yl}methyl)pyrrolidin-3-ol] is 0.59 nM; for `Cc1cccc(-c2nc(Nc3ccncc3F)c3c(CN4CC[C@H](O)C4)ccn3n2)n1` [Example 252, (3S)-1-({4-[(3-fluoropyridin-4-yl)amino]-2-(6-methylpyridin-2-yl)pyrrolo[2,1-f][1,2,4]triazin-5-yl}methyl)pyrrolidin-3-ol] it is 0.49 nM; for `OCCN1CCN(Cc2ccn3nc(-c4cccc(C(F)F)n4)nc(Nc4ccncc4F)c23)CC1` [Example 253, 2-[4-({2-[6-(difluoromethyl)pyridin-2-yl]-4-[(3-fluoropyridin-4-yl)amino]pyrrolo[2,1-f][1,2,4]triazin-5-yl}methyl)piperazin-1-yl]ethan-1-ol] it is 1.2 nM. The figure for `CC(=O)Nc1cc(Nc2nc(-c3cccc(C(F)(F)F)n3)nn3ccc(CNCC(C)(C)O)c23)ccn1` [Example 254, N-{4-[(5-{[(2-hydroxy-2-methylpropyl)amino]methyl}-2-[6-(trifluoromethyl)pyridin-2-yl]pyrrolo[2,1-f][1,2,4]triazin-4-yl)amino]pyridin-2-yl}acetamide] is 2 nM; for `FC(F)(F)c1cccc(-c2nc(Nc3ccncn3)c3cccn3n2)n1` [Example 255, N-{2-[6-(trifluoromethyl)pyridin-2-yl]pyrrolo[2,1-f][1,2,4]triazin-4-yl}pyrimidin-4-amine] it is 28 nM; for `Fc1cc(Nc2nc(-c3cccc(C(F)(F)F)n3)nn3cccc23)ccn1` [Example 256, 2-fluoro-N-{2-[6-(trifluoromethyl)pyridin-2-yl]pyrrolo[2,1-f][1,2,4]triazin-4-yl}pyridin-4-amine] it is 250 nM.

In the case of `Cc1cc(Nc2nc(-c3cccc(C(F)(F)F)n3)nn3cccc23)ccn1` [Example 257, 2-methyl-N-{2-[6-(trifluoromethyl)pyridin-2-yl]pyrrolo[2,1-f][1,2,4]triazin-4-yl}pyridin-4-amine], the IC50 came out at 660 nM.

With `CCNc1cc(Nc2nc(-c3ccccn3)nn3ccc(CNCC(C)(C)O)c23)ccn1` [Example 258, 1-{[(4-{[2-(ethylamino)pyridin-4-yl]amino}-2-(pyridin-2-yl)pyrrolo[2,1-f][1,2,4]triazin-5-yl)methyl]amino}-2-methylpropan-2-ol], the concentration for half-maximal inhibition (IC50) was 4.5 nM. The figure for `Cc1cccc(-c2nc(Nc3ccncc3F)c3c(CN4CCN(CCO)CC4)ccn3n2)n1` [Example 259, 2-[4-({4-[(3-fluoropyridin-4-yl)amino]-2-(6-methylpyridin-2-yl)pyrrolo[2,1-f][1,2,4]triazin-5-yl}methyl)piperazin-1-yl]ethan-1-ol] is 0.93 nM. The figure for `Fc1cnccc1Nc1nc(-c2ncccc2F)nn2cccc12` [Example 260, 3-fluoro-N-[2-(3-fluoropyridin-2-yl)pyrrolo[2,1-f][1,2,4]triazin-4-yl]pyridin-4-amine] is 3.2 nM. The figure for `Cc1ccc(F)c(-c2nc(Nc3ccncc3F)c3cccn3n2)n1` [Example 261, 3-fluoro-N-[2-(3-fluoro-6-methylpyridin-2-yl)pyrrolo[2,1-f][1,2,4]triazin-4-yl]pyridin-4-amine] is less than 0.76 nM.

As to `Fc1cnccc1Nc1nc(-c2cscn2)nn2cccc12` [Example 262, 3-fluoro-N-[2-(1,3-thiazol-4-yl)pyrrolo[2,1-f][1,2,4]triazin-4-yl]pyridin-4-amine], the IC50 came to 8.2 nM. The figure for `OCC(CO)NCc1ccn2nc(-c3ccccn3)nc(Nc3ccncc3F)c12` [Example 264, 2-[({4-[(3-fluoropyridin-4-yl)amino]-2-(pyridin-2-yl)pyrrolo[2,1-f][1,2,4]triazin-5-yl}methyl)amino]propane-1,3-diol] is 1.7 nM; for `Fc1cnccc1Nc1nc(-c2ccccn2)nn2ccc(CNCC3CCCCN3)c12` (stereo not drawn) [Example 265, 3-fluoro-N-(5-{[(piperidin-2-ylmethyl)amino]methyl}-2-(pyridin-2-yl)pyrrolo[2,1-f][1,2,4]triazin-4-yl)pyridin-4-amine] it is 6.7 nM. The figure for `Fc1cnccc1Nc1nc(-c2ccccn2)nn2ccc(CNCC3CNC3)c12` [Example 266, N-(5-{[(azetidin-3-ylmethyl)amino]methyl}-2-(pyridin-2-yl)pyrrolo[2,1-f][1,2,4]triazin-4-yl)-3-fluoropyridin-4-amine] is 10 nM; for `Fc1cnccc1Nc1nc(-c2ccccn2)nn2ccc(CNC3CCCNC3)c12` (stereo not drawn) [Example 267, 3-fluoro-N-(5-{[(piperidin-3-yl)amino]methyl}-2-(pyridin-2-yl)pyrrolo[2,1-f][1,2,4]triazin-4-yl)pyridin-4-amine] it is 2.4 nM; for `Fc1cnccc1Nc1nc(-c2ccccn2)nn2ccc(CNCC(F)(F)F)c12` [Example 268, 3-fluoro-N-[2-(pyridin-2-yl)-5-{[(2,2,2-trifluoroethyl)amino]methyl}pyrrolo[2,1-f][1,2,4]triazin-4-yl]pyridin-4-amine] it is 1.1 nM. The figure for `Fc1cnccc1Nc1nc(-c2ccccn2)nn2ccc(CNCCN3CCNCC3)c12` [Example 269, 3-fluoro-N-[5-({[2-(piperazin-1-yl)ethyl]amino}methyl)-2-(pyridin-2-yl)pyrrolo[2,1-f][1,2,4]triazin-4-yl]pyridin-4-amine] is 4.2 nM; for `Fc1cnccc1Nc1nc(-c2ccccn2)nn2ccc(CNCCC3CCCN3)c12` (stereo not drawn) [Example 270, 3-fluoro-N-[2-(pyridin-2-yl)-5-({[2-(pyrrolidin-2-yl)ethyl]amino}methyl)pyrrolo[2,1-f][1,2,4]triazin-4-yl]pyridin-4-amine] it is 3.6 nM; for `Fc1cnccc1Nc1nc(-c2ccccn2)nn2ccc(CNCC3CCC3)c12` [Example 271, N-(5-{[(cyclobutylmethyl)amino]methyl}-2-(pyridin-2-yl)pyrrolo[2,1-f][1,2,4]triazin-4-yl)-3-fluoropyridin-4-amine] it is 1.2 nM.

In turn, `OC1CCCCC1NCc1ccn2nc(-c3ccccn3)nc(Nc3ccncc3F)c12` (stereo not drawn) [Example 272, 2-[({4-[(3-fluoropyridin-4-yl)amino]-2-(pyridin-2-yl)pyrrolo[2,1-f][1,2,4]triazin-5-yl}methyl)amino]cyclohexan-1-ol] gave a 50% inhibitory concentration (IC50) of 1.1 nM. The figure for `CCC[C@@H](CO)NCc1ccn2nc(-c3ccccn3)nc(Nc3ccncc3F)c12` [Example 273, (2S)-2-[({4-[(3-fluoropyridin-4-yl)amino]-2-(pyridin-2-yl)pyrrolo[2,1-f][1,2,4]triazin-5-yl}methyl)amino]pentan-1-ol] is 1.6 nM; for `CC(O)CCNCc1ccn2nc(-c3ccccn3)nc(Nc3ccncc3F)c12` (stereo not drawn) [Example 274, 4-[({4-[(3-fluoropyridin-4-yl)amino]-2-(pyridin-2-yl)pyrrolo[2,1-f][1,2,4]triazin-5-yl}methyl)amino]butan-2-ol] it is 0.52 nM. The figure for `Oc1cccc(N2CCN(Cc3ccn4nc(-c5ccccn5)nc(Nc5ccncc5F)c34)CC2)c1` [Example 275, 3-[4-({4-[(3-fluoropyridin-4-yl)amino]-2-(pyridin-2-yl)pyrrolo[2,1-f][1,2,4]triazin-5-yl}methyl)piperazin-1-yl]phenol] is 0.47 nM; for `Fc1cnccc1Nc1nc(-c2ccccn2)nn2ccc(CN3CCN(c4ncccn4)CC3)c12` [Example 276, 3-fluoro-N-[2-(pyridin-2-yl)-5-{[4-(pyrimidin-2-yl)piperazin-1-yl]methyl}pyrrolo[2,1-f][1,2,4]triazin-4-yl]pyridin-4-amine] it is 1.6 nM.
